Results as given in a melting point compilation (Tetko et al.; mined from patent text by program, amines drawn as free bases though some values may be those of a salt).

First: O=C1CC(c2csc(-n3ccnc3)n2)=Nc2ccc(-c3ccc(F)cc3)cc2N1
Second: N#Cc1ccc(-c2nc(-c3ccc(F)cc3)c(-c3ccnc4ccccc34)[nH]2)cc1
The melting point of the first is lower: 214 °C for the first, 294 to 295 °C for the second.

First: CC(=O)NC[C@H]1CN(c2ccc(N3CCC4(CCOCCO4)CC3)c(F)c2)C(=O)O1
Second: O=C1c2cccc(N3CCCC3)c2OC12CC2
The melting point of the first is higher: 182 to 184 °C for the first, 102 °C for the second.

First: Fc1cc(CC2(Cc3ccnc(F)c3)c3ccccc3-c3nc(-c4ccccc4)ncc32)ccn1
Second: Cc1ccccc1-c1ccc(C(=O)N2Cc3ccc(C(=O)NCCc4cccc(Cl)c4)n3Cc3ccccc32)cc1C
The melting point of the first is higher: 213 to 215 °C for the first, 174 to 176 °C for the second.

Compared with `O=C(NCC(C=C1CCCCC1[N+](=O)[O-])=NO)c1cccnc1` (stereo unspecified), `O=C(c1ccccc1)C(Cl)(Cl)C1CCCCC1` is lower in melting point: 149 to 151 °C for the first, 92.5 to 94 °C for the second.

`CC1(C)Oc2cc3nonc3cc2C(N2CC(O)CCC2=O)C1O` (stereo unspecified) and `CC12C=CC(=O)C=C1CCC1C2CCC2(C)C(=O)COC12` (stereo unspecified) cannot be ordered by melting point: 178 to 182 °C for the first, 181 to 185 °C for the second.

Compared with `Nc1nc(Cl)nc2cnc(Oc3ccc(F)cc3F)cc12`, `CCOc1cc(Cc2cnc(N)nc2N)cc2c1OC(C)(C)C=C2Cl` is lower in melting point: > 300 °C for the first, 197 to 199 °C for the second.

Compared with `CCOC(=O)CCCCc1oc(=O)[nH]c1-c1ccc(Cl)cc1`, `NC(=O)N(O)Cc1cc(-c2ccc(Cl)cc2)n(-c2ccc(S(N)(=O)=O)cc2)n1` is higher in melting point: 143 to 144 °C for the first, 216 to 218 °C for the second.

Compared with `ON=Cc1c(Br)ccc2c1OCO2`, `COc1cc(C(=O)/C=C/c2ccc3c(c2)OCO3)cc(OC)c1OC` is lower in melting point: 239 to 240 °C for the first, 135 °C for the second.

Compared with `Cc1c(C)c2c(c(C)c1OCc1ccncc1)C(c1ccc(C(C)C)cc1)C1(CCN(C)CC1)O2` (stereo unspecified), `Cc1c(C)c2c(c(C)c1NC(=O)CC(C)(C)C)C(c1ccc(C(C)CC(=O)O)cc1)CO2` (stereo unspecified) is higher in melting point: 96 to 98 °C for the first, 209 to 210 °C for the second.

First: CN1/C(=C\C(=S)NC(=O)c2ccccc2)C(C)(C)c2ccccc21
Second: O=[N+]([O-])c1ccc(C(Cl)=NNc2ccccc2)cc1
The melting point of the first is lower: 108 to 110 °C for the first, 157 to 158 °C for the second.

`CC1CN(S(=O)(=O)c2cc(C#N)ccc2Sc2cc(Cl)ccc2Cl)CC(C)N1` (stereo unspecified) and `CN1CCC(c2cc(F)ccc2F)(S(=O)(=O)c2ccc(Cl)cc2)CC1` cannot be ordered by melting point: 160 to 190 °C for the first, 172 to 175 °C for the second.

First: CC(C)c1cc(C(=O)CON2C(=O)c3ccccc3C2=O)cc(C(C)C)c1O
Second: COC(=O)c1sc(C)c2nc(OC)n(Cc3ccc(-c4ccccc4C#N)cc3)c12
The melting point of the first is lower: 136 to 139 °C for the first, 181 to 182 °C for the second.

First: COc1cc2c(cc1OC)-c1cc(=Nc3c(C)cc(C)cc3C)n(C)c(=O)n1CC2
Second: COc1ccc(C2=C(CO)c3ccc(OC)cc3CC2)cc1
The melting point of the first is higher: 151 to 152 °C for the first, 121 °C for the second.

Compared with `CN(c1ccccc1)c1nc(Cl)nc(Cl)n1`, `Clc1ccc(OCc2ccccc2)c(OCC2CO2)c1Cl` (stereo unspecified) is lower in melting point: 132 °C for the first, 59 to 61 °C for the second.

Compared with `Cc1cccc(OCC2=NCCN2C(=S)N(C)C)c1C`, `COc1ccc(Cl)cc1C1=NCCO1` is lower in melting point: 124 to 127 °C for the first, 100 to 101 °C for the second.

Compared with `O[C@H](CCc1cccnc1)COc1ccc(C#Cc2ccccc2)cc1`, `ONC(CCc1ccccc1)CCc1ccccc1` is lower in melting point: 67 to 68 °C for the first, 54 to 55 °C for the second.

First: C[C@H]1C(=O)N[C@@H](Cc2c[nH]c3ccccc23)C(=O)N1OCc1ccccc1
Second: NC(=O)c1ccc2[nH]cc(CCCCN3CC=C(c4ccccc4)CC3)c2c1
The melting point of the first is lower: 172 to 174 °C for the first, 200 to 205 °C for the second.

First: Nc1cc(I)cc(CF)c1
Second: COc1ccc2cccc(N)c2c1
The melting point of the first is lower: 48.5 to 50 °C for the first, 134 to 136 °C for the second.

Compared with `CNC(=O)c1ncnc(C)c1NC(=O)c1cc(Cl)nn1-c1ncccc1Cl`, `O=c1c2cc(-c3nnn[nH]3)ccc2oc2ncccc12` is higher in melting point: 205 to 207 °C for the first, > 300 °C for the second.

First: CN1CC(CO)C=C2c3cccc4c3c(cn4C(C)(C)C)CC21 (stereo unspecified)
Second: Cc1ccc(-c2ccc3c(c2)C=C(C(=O)OC(C)(C)C)CO3)cc1
The melting point of the first is higher: 181 to 183 °C for the first, 80 to 82 °C for the second.

First: CC1CC(=O)NN=C1c1ccc2c(c1)C(C)(C)CC(=O)N2C (stereo unspecified)
Second: CC(C)OC(=O)c1ncn2c1CN(C)C(=O)c1cc(F)ccc1-2
The melting point of the first is lower: 238 to 241 °C for the first, 243 to 244 °C for the second.

First: O=C(OCC1c2ccccc2-c2ccc(S(=O)(=O)O)cc21)ON1C(=O)CCC1=O (stereo unspecified)
Second: COc1ccc(S(=O)(=O)C2(C(=O)O)CCN(CCCc3ccccc3)CC2)cc1
The melting point of the first is lower: 140 to 146 °C for the first, 203 °C for the second.

Compared with `CCCCC(C(=O)OCC)c1ccc(N2Cc3ccccc3C2=N)cc1` (stereo unspecified), `O=Cc1ccc(OCCN2Cc3ccccc3C2=O)cc1` is lower in melting point: 140 to 142 °C for the first, 134 to 135 °C for the second.

First: Cc1c2c(c(C(=O)c3ccc(C(C)C)cc3)c(C)c1NC(=O)CC(C)(C)C)OC(C)(C)C2
Second: CCOC(=O)c1ccc(NC(=O)C(C)C)c(N)c1
The melting point of the first is higher: 194 to 195 °C for the first, 147 to 149 °C for the second.

First: N#CCCCCc1cccc2cncn12
Second: CCCCCCCc1cnc(N)s1
The melting point of the first is lower: 72 to 75 °C for the first, 75 to 76 °C for the second.

First: COc1ccc(-c2cc(=O)c3cc(OCCCCCN4CCC(O)CC4)ccc3o2)cc1
Second: C=CC(=O)OCCCCCCCCOc1ccc(C(=O)Oc2ccc(C=O)cc2)cc1
The melting point of the first is higher: 138 to 139 °C for the first, 73 °C for the second.

First: CCCCNc1ccc(-c2nc(C(=O)Nc3nccs3)c(-c3cccc(OC)c3)[nH]2)cc1
Second: COC(=O)Cc1c(C)n(-c2ccnc3ccccc23)c2ccc(OC)cc12
The melting point of the first is higher: 228 to 231 °C for the first, 103 to 105 °C for the second.

First: COc1cc(CN(C)c2nn(-c3ccccc3)cc2C=O)ccc1OCc1nc(-c2ccco2)oc1C
Second: Cc1oc(-c2ccco2)nc1COc1ccc(CON=C(CCC(=O)O)c2ccccc2)cc1
The melting point of the first is lower: 101 to 102 °C for the first, 124 to 125 °C for the second.

Compared with `COC(=O)C1=Cc2cccc(C(F)F)c2OCC1`, `COC(=O)CCC1OC(=O)C(O)=C1c1ccccc1` (stereo unspecified) is higher in melting point: 97 to 99 °C for the first, 135 to 136 °C for the second.

First: O=C1c2ccccc2C(=O)N1CCC(=O)N1c2ccccc2N(Cc2ccccc2)C(=O)[C@H]2CCC[C@H]21 (relative stereo)
Second: CCOC(=O)CN1C(=O)C(NC(=O)Nc2ccc(Cl)cc2)N=C(c2ccccc2F)c2ccccc21 (stereo unspecified)
The melting point of the first is lower: 242 to 244 °C for the first, 253 to 254 °C for the second.

First: COCc1nnc(N2N=C(c3ccc([N+](=O)[O-])c(Cl)c3)c3cc4c(cc3C[C@H]2C)OCO4)s1
Second: COc1ccc(Cl)c(Oc2c(NS(=O)(=O)c3ccc4c(c3)OCO4)ncnc2OCCO)c1
The melting point of the first is higher: 208 to 210 °C for the first, 148 to 150 °C for the second.

First: CCOC(=O)c1ccc(Cn2c(NC3CCN(C(=O)OCC)CC3)nc3ccccc32)o1
Second: CCc1nc2c(N)nc3cc(Br)ccc3c2n1CC1CCN(C(=O)OC(C)(C)C)CC1
The melting point of the first is higher: 136 °C for the first, 131 to 132 °C for the second.

First: O=C(C[C@@H](CCCC1CCCCC1)c1nc(CNC2CCC2)no1)NO
Second: CN(C)C(=O)N[C@H]1CC[C@H](CCN2CCN(c3ccc(O)c(Cl)c3Cl)CC2)CC1
The melting point of the first is lower: 82 to 83.9 °C for the first, 278 to 280 °C for the second.

Going from `CCOC(=O)c1cnn(C)c1C(=O)Nc1ccn2nc(N(C)CC)nc2c1` to `CCOC(=O)c1c(O)n(C)c2cc(-c3ccncc3)ccc2c1=O`, the melting point rises from 167 °C to 184 °C.

First: O=C(NCCNCC1COc2ccccc2O1)C12CC3CC(CC(C3)C1)C2 (stereo unspecified)
Second: CC1(C)O[C@@H](CC(=O)O)C[C@@H](C=Cc2ccccc2)O1 (relative stereo)
The melting point of the first is lower: 147 to 149 °C for the first, 153 to 155 °C for the second.

First: CCOC(=O)c1nc(S)n2c1c(=O)n(C)c1cc(C(F)(F)F)ccc12
Second: O=C(O)c1cccc(-c2cc(-c3ccc(C(F)(F)F)cc3)on2)c1
The melting point of the first is higher: 282 °C for the first, 276 to 277 °C for the second.

First: O=c1occ(CSc2ccc(F)cc2)o1
Second: O=C1C=C(NC(=O)C(=O)c2cn(Cc3ccc(F)cc3)c3cc4c(cc23)OCO4)CO1
The melting point of the first is lower: 57 to 59 °C for the first, 210 to 212 °C for the second.

First: CN(C)C(=O)Nc1snc(S(C)(=O)=O)c1C#N
Second: CC(C)(C)[N+]([O-])=Cc1ccc(S(C)(=O)=O)o1
The melting point of the first is higher: 243 to 244 °C for the first, 138 °C for the second.

First: CCOC(=O)C1=C(N)NC(C)=CC1c1ccccc1 (stereo unspecified)
Second: COc1cccc(OC)c1C(=O)C=Cc1ccccc1
The melting point of the first is higher: 150 °C for the first, 123 to 124 °C for the second.

Compared with `CC(=NOCC=Cc1ccccc1)C(=O)Cl`, `CC(C)(C)OC(=O)CON=C(C(=O)O)c1ccsc1` is lower in melting point: 120 to 121 °C for the first, 103 to 104 °C for the second.

Compared with `CC(=CCO)COc1ccc([N+](=O)[O-])cc1`, `CCOC(=O)/C=C/C=C/c1ccc(OCC(F)(F)C(F)F)cc1` is higher in melting point: 41 to 43 °C for the first, 65 to 66 °C for the second.

First: CCCCCCCOc1ccc(C(=O)O)c(C)c1
Second: CCCCCC(=S)SCCC
The melting point of the first is higher: 74 to 76 °C for the first, 55 to 56 °C for the second.

First: Cc1c(CCNC(=S)Nc2nccs2)cccc1C(F)(F)F
Second: COC(=O)CCC(=O)c1ccc(-c2ccc(C)cc2)cc1
The melting point of the first is higher: 158 to 159 °C for the first, 121 to 122 °C for the second.

Compared with `Cn1nc2nc(C(C)(C)C)[nH]c(=O)c2c1N`, `CCOC(=O)CNc1nc(C)c(C(=O)OCC)c(NC(C)CC)c1[N+](=O)[O-]` (stereo unspecified) is lower in melting point: 285 to 287 °C for the first, 43 to 45 °C for the second.

First: O=S(=O)(Nc1cccnc1Nc1ccccc1)c1ccccc1Cl
Second: O=c1[nH]c2ncc(-c3ccc(O)cc3)nc2n1CCc1ccccc1
The melting point of the first is lower: 140 to 141 °C for the first, 283 to 284 °C for the second.

Compared with `Nc1ccc(Oc2cccc(Oc3ccc(N)c(O)c3)c2)cc1O`, `COc1ccc(C(=O)Nc2ccc(Cl)c(Cl)c2)cc1NC(=S)Nc1ccc(S(N)(=O)=O)cc1` is higher in melting point: 171 to 174 °C for the first, 190 to 193 °C for the second.

First: O=C(NC1CCC(CCN2CCC(c3cccc4c3CCO4)CC2)CC1)C(O)C(F)(F)F (racemic)
Second: O=S1N=C(NCCCOc2cccc(CN3CCCCC3)c2)C(NCc2ccccn2)=N1 (stereo unspecified)
The melting point of the first is higher: 179 °C for the first, 140 to 143 °C for the second.

Compared with `Cc1cc2nncn2nc1-c1ccc(C(N)=S)cc1`, `CCCCc1cn(-c2c(C)cccc2Cl)c(=O)n1Cc1ccc(-c2ccccc2-c2nnn[nH]2)cc1` is lower in melting point: 268 to 272 °C for the first, 163 to 164 °C for the second.

Compared with `CCC(=O)Oc1cc(OC)cc(OC)c1C(=O)C=Cc1ccc2c(c1)OCO2`, `CCOC(=O)c1cc(Cl)c(Cl)c(C2=NOCC2)c1C` is lower in melting point: 134 °C for the first, 96 to 97 °C for the second.

First: Cc1ccc(-n2c(=O)n(O)c(=O)c3cc(F)c(N4CCCC4)nc32)cc1
Second: CCCN1C(=O)C2(CC)CC(c3ccc(N)cc3)(C2)C1=O
The melting point of the first is higher: 228 to 230 °C for the first, 124 to 125 °C for the second.

`O=C(O)C(=NOCc1cccnc1)c1csc(NC(c2ccccc2)(c2ccccc2)c2ccccc2)n1` showed a melting point of 192 °C.
